Measured values from ChEMBL document CHEMBL1150771, “Synthesis and potency of novel uracil nucleotides and derivatives as P2Y2 and P2Y6 receptor agonists” (Bioorg Med Chem, 2008).

Legend:
P2Y purinoceptor 6 = P2Y purinoceptor 6 (Homo sapiens, UniProt Q15077); assay: Agonist activity at human P2Y6 receptor expressed in human 1321N1 cells assessed as [3H]inositol phosphate accumulation by scintillation proximity assay; type: functional, cell-based
P2Y purinoceptor 2 = P2Y purinoceptor 2 (Homo sapiens, UniProt P41231); assay: Agonist activity at human P2Y2 receptor expressed in human 1321N1 cells assessed as [3H]inositol phosphate accumulation by scintillation proximity assay; type: functional, cell-based
P2Y purinoceptor 4 = P2Y purinoceptor 4 (Homo sapiens, UniProt P51582); assay: Agonist activity at human P2Y4 receptor expressed in human 1321N1 cells assessed as [3H]inositol phosphate accumulation by scintillation proximity assay; type: functional, cell-based
Homo sapiens = species: Homo sapiens; assay: Selectivity for human P2Y2 receptor over human P2Y4 receptor

P2Y purinoceptor 4, sequence (P51582 whole entry): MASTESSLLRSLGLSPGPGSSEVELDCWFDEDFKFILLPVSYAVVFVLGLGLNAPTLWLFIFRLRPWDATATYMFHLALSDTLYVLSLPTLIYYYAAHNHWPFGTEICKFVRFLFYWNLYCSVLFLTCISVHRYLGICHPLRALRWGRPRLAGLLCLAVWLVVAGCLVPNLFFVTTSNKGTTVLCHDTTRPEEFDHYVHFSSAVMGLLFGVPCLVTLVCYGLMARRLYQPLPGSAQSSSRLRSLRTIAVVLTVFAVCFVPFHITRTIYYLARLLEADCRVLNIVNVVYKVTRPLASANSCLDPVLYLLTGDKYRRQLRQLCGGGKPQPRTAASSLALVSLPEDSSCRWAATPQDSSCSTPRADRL
P2Y purinoceptor 2, sequence (P41231 whole entry): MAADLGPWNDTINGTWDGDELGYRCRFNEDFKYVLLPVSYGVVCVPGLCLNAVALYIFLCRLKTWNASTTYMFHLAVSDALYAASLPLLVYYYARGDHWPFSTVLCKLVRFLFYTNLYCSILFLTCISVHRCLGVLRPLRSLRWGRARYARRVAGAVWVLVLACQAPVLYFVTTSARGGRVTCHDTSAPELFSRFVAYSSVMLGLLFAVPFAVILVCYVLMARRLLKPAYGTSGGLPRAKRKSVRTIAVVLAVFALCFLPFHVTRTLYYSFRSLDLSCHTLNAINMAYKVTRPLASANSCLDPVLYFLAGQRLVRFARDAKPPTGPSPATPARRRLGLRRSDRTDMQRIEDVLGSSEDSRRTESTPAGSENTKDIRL
P2Y purinoceptor 6, sequence (Q15077 whole entry): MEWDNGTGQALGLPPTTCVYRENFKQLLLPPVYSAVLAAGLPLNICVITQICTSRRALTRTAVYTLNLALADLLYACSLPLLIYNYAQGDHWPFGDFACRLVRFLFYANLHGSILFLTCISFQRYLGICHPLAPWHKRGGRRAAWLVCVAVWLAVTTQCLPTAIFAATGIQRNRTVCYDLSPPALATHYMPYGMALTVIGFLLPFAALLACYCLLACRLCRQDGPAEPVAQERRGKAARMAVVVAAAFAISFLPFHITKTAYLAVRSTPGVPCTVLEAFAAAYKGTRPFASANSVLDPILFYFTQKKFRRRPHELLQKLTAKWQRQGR

| Compound | EC50 (P2Y purinoceptor 6) [µM] | EC50 (P2Y purinoceptor 2) [µM] | EC50 (P2Y purinoceptor 4) [µM] | Ratio EC50 (Homo sapiens) |
| --- | --- | --- | --- | --- |
| O=c1ccn([C@@H]2O[C@H](COP(=O)(O)OP(=O)(O)OP(=O)(O)OP(=O)(O)OC[C@H]3OC(O)C[C@@H](O)[C@@H]3O)[C@@H](O)[C@H]2O)c(=O)[nH]1 (stereo not given in full) | > 10 | 3.54 | 4.32 |  |
| O=c1ccn([C@@H]2O[C@H](COP(=O)(O)OP(=O)(O)C(Cl)(Cl)P(=O)(O)O)[C@@H](O)[C@H]2O)c(=S)[nH]1 | > 10 | 2.51 |  |  |
| O=c1ccn([C@@H]2O[C@H](COP(=O)(O)OP(=O)(O)C(F)(F)P(=O)(O)O)[C@@H](O)[C@H]2O)c(=S)[nH]1 | 5.15 | 1.63 | 8.11 |  |
| O=c1ccn([C@@H]2O[C@H](COP(=O)(O)OP(=O)(O)OP(=O)(O)OP(=O)(O)Oc3ccccc3)[C@@H](O)[C@H]2O)c(=O)[nH]1 |  | 1.89 |  |  |
| O=c1ccn([C@@H]2O[C@H](COP(=O)(O)OP(=O)(O)OP(=O)(O)OP(=O)(O)OC3CCCCC3)[C@@H](O)[C@H]2O)c(=O)[nH]1 | > 10 | 5.86 | > 10 |  |
| NC(=O)N[C@@H]1[C@H](O)[C@@H](COP(=O)(O)OP(=O)(O)O)O[C@H]1n1ccc(=O)[nH]c1=O | 4.7 |  |  |  |
| N#CCCOP(=O)(O)OP(=O)(O)OP(=O)(O)OP(=O)(O)OC[C@H]1O[C@@H](n2ccc(=O)[nH]c2=O)[C@H](O)[C@@H]1O | > 10 | 1.7 | 1.96 |  |
| NC(=O)N[C@@H]1[C@H](O)[C@@H](COP(=O)(O)OP(=O)(O)OP(=O)(O)O)O[C@H]1n1ccc(=O)[nH]c1=O | > 10 | 1.74 | 4.64 |  |
| O=c1ccn([C@@H]2O[C@H](COP(=O)(O)OP(=O)(O)OP(=O)(O)OC[C@H]3O[C@@H](n4cc(I)c(=O)[nH]c4=O)[C@H](O)[C@@H]3O)[C@H]3OC(Cc4ccccc4)O[C@H]32)c(=O)[nH]1 (stereo not given in full) | 5.49 | 9.97 |  |  |
| O=c1ccn([C@@H]2O[C@H](COP(=O)(O)CP(=O)(O)O)[C@@H](O)[C@H]2O)c(=O)[nH]1 | 0.66 |  |  |  |
| O=c1ccn([C@@H]2O[C@H](COP(=O)(O)OP(=O)(O)OP(=O)(O)OP(=O)(O)OC[C@@H]3OC(O)[C@@H](O)[C@H]3O)[C@@H](O)[C@H]2O)c(=O)[nH]1 (stereo not given in full) | > 10 | 1.88 | 4.78 |  |
| O=c1ccn([C@@H]2O[C@H](COP(=O)(O)OP(=O)(O)OP(=O)(O)O)[C@@H](O)[C@H]2O)c(=O)[nH]1 [URIDINE TRIPHOSPHATE] | > 10 | 0.06 | 0.09 |  |
| O=c1ccn([C@@H]2O[C@H](COP(=O)(O)OP(=O)(O)C(F)(F)P(=O)(O)OP(=O)(O)OC[C@H]3O[C@@H](n4ccc(=O)[nH]c4=O)[C@H](O)[C@@H]3O)[C@@H](O)[C@H]2O)c(=O)[nH]1 | > 10 | 2.27 | > 10 |  |
| Nc1cn([C@@H]2O[C@H](COP(=O)(O)OP(=O)(O)O)[C@@H](O)[C@H]2O)c(=O)[nH]c1=O | 0.61 |  |  |  |
| O=c1ccn([C@@H]2O[C@H](COP(=O)(O)OP(=O)(O)OP(=O)(O)OP(=O)(O)OC[C@H]3OC(O)[C@@H](O)[C@@H](O)[C@@H]3O)[C@@H](O)[C@H]2O)c(=O)[nH]1 (stereo not given in full) | > 10 | > 10 | > 10 |  |
| C[C@@]1(O)[C@H](O)[C@@H](COP(=O)(O)OP(=O)(O)OP(=O)(O)O)O[C@H]1n1ccc(=O)[nH]c1=O |  | 1.45 | 1.26 |  |
| COP(=O)(O)OP(=O)(O)OP(=O)(O)OP(=O)(O)OC[C@H]1O[C@@H](n2ccc(=O)[nH]c2=O)[C@H](O)[C@@H]1O | > 10 | 3.95 | 2.7 |  |
| CSc1ccn([C@@H]2O[C@H](COP(=O)(O)OP(=O)(O)OP(=O)(O)O)[C@@H](O)[C@H]2O)c(=S)n1 | > 10 | 0.91 | 5.35 |  |

More lines, now with the values ahead:

| EC50 (P2Y purinoceptor 6) [µM] | EC50 (P2Y purinoceptor 2) [µM] | EC50 (P2Y purinoceptor 4) [µM] | Ratio EC50 (Homo sapiens) | Compound |
| --- | --- | --- | --- | --- |
| 1.03 | 0.14 | 0.54 |  | Nc1nc2c(ncn2[C@H]2C[C@H](O)[C@@H](COP(=O)(O)OP(=O)(O)OP(=O)(O)OP(=O)(O)OC[C@H]3O[C@@H](n4ccc(=O)[nH]c4=O)[C@H](O)[C@@H]3O)O2)c(=O)[nH]1 |
|  | 0.14 | 7.93 |  | O=c1ccn([C@@H]2O[C@H](COP(=O)(O)OP(=O)(O)OP(=O)(O)O)[C@@H](O)[C@@H]2O)c(=S)[nH]1 |
| 7.33 | 0.57 | 5.27 |  | O=c1ccn([C@@H]2O[C@H](COP(=O)(O)OP(=O)(O)OP(=O)(O)OP(=O)(O)OP(=O)(O)O)[C@@H](O)[C@H]2O)c(=S)[nH]1 |
| 7.56 | 2.61 | 4.64 |  | O=c1ccn([C@@H]2O[C@H](COP(=O)(O)OP(=O)(O)OP(=O)(O)OP(=O)(O)O)[C@@H](O)[C@H]2O)c(=O)[nH]1 |
| 6.46 | 0.07 | 0.28 |  | O=c1[nH]c(=S)ccn1[C@@H]1O[C@H](COP(=O)(O)OP(=O)(O)OP(=O)(O)OP(=O)(O)O)[C@@H](O)[C@H]1O |
| 2.03 | 0.03 | 0.08 |  | O=c1[nH]c(=S)ccn1[C@@H]1O[C@H](COP(=O)(O)OP(=O)(O)OP(=O)(O)OP(=O)(O)OC[C@H]2O[C@@H](n3ccc(=S)[nH]c3=O)[C@H](O)[C@@H]2O)[C@@H](O)[C@H]1O |
| 0.27 | 1.31 | 0.87 |  | O=c1ccn([C@@H]2O[C@H](COP(=O)(O)OP(=O)(O)OP(=O)(O)OC[C@H]3O[C@@H](n4ccc(=O)[nH]c4=O)[C@H](O)[C@@H]3O)[C@@H](O)[C@H]2O)c(=O)[nH]1 |
|  | 7.77 |  |  | O=c1ccn([C@@H]2O[C@H](COP(=O)(O)OP(=O)(O)C(Cl)(Cl)P(=O)(O)OP(=O)(O)OC[C@H]3O[C@@H](n4ccc(=O)[nH]c4=O)[C@H](O)[C@@H]3O)[C@@H](O)[C@H]2O)c(=O)[nH]1 |
| 6.83 | 0.6 | 5.52 |  | O=c1ccn([C@@H]2O[C@H](COP(=O)(O)OP(=O)(O)OP(=O)(O)OP(=O)(O)O)[C@@H](O)[C@H]2O)c(=S)[nH]1 |
| 1.05 | 0.08 | 0.71 | 9 | Nc1ccn([C@H]2C[C@H](O)[C@@H](COP(=O)(O)OP(=O)(O)OP(=O)(O)OP(=O)(O)OC[C@H]3O[C@@H](n4ccc(=O)[nH]c4=S)[C@H](O)[C@@H]3O)O2)c(=O)n1 |
|  | 3.33 | 6.3 |  | O=c1ccn([C@@H]2O[C@H](COP(=O)(O)OP(=O)(O)OP(=O)(O)OP(=O)(O)OC[C@@H]3O[C@@](O)(CO)[C@H](O)[C@H]3O)[C@@H](O)[C@H]2O)c(=O)[nH]1 |
| 7.83 | 0.3 | 2.06 |  | O=c1ccn([C@@H]2O[C@H](COP(=O)(O)OP(=O)(O)OP(=O)(O)OP(=O)(O)O[C@H]3O[C@H](CO)[C@@H](O)[C@H](O)[C@H]3O)[C@@H](O)[C@H]2O)c(=O)[nH]1 |
| 8.19 | 4.85 | 1.77 |  | O=c1ccn([C@@H]2O[C@H](COP(=O)(O)OP(=O)(O)OP(=O)(O)OP(=O)(O)O[C@H]3O[C@H](CO)[C@H](O)[C@H](O)[C@H]3O)[C@@H](O)[C@H]2O)c(=O)[nH]1 |
| 0.95 | 0.14 | 0.14 |  | Nc1ccn([C@H]2C[C@H](O)[C@@H](COP(=O)(O)OP(=O)(O)OP(=O)(O)OP(=O)(O)OC[C@H]3O[C@@H](n4ccc(=O)[nH]c4=O)[C@H](O)[C@@H]3O)O2)c(=O)n1 [DENUFOSOL] |
| 8.19 | 1.87 | 1.12 |  | O=c1ccn([C@@H]2O[C@H](COP(=O)(O)OP(=O)(O)OP(=O)(O)OP(=O)(O)OCC(O)CO)[C@@H](O)[C@H]2O)c(=O)[nH]1 (stereo not given in full) |
